Laboratory results as given in patent US20210238197A1, “NOVEL OXOQUINOLIZINE COMPOUNDS FOR THE TREATMENT AND PROPHYLAXIS OF BACTERIAL INFECTION” (Hoffmann-La Roche Inc., priority 2018, published 2021).
Converted amounts (≈) assume the structure as drawn. Where two headings read alike, the source gives them in different places.

Assays:
S. aureus (ATCC29213) = assay: 50% growth inhibitory concentration (IC50) determination assay, S. aureus; type: cell-based; settings: Iso-Sensitest broth, growth by OD 600 nm over 16 h, <0.098 = detection limit
Method in brief: (§1)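 Compounds two-fold diluted from 50 to 0.097 μM (final) in Iso-Sensitest broth, inoculum ~5×10^5 CFU/mL. Incubation at 35±2 °C with OD600 read every 20 min over 16 h to track growth.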

A. baumannii (ATCC17978) = assay: 50% growth inhibitory concentration (IC50) determination assay, A. baumannii; type: cell-based; settings: Iso-Sensitest broth, growth by OD 600 nm over 16 h, <0.098 = detection limit
Method in brief: as §1

[1] = system: multiple species and strains; assay: microbe, parasite or virus in culture; set-up: MIC S9 / MIC S7 / MIC S11 / MIC S8 / MIC S10: unit not given beside the values
Method in brief: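 Broth microdilution per CLSI M07-A10 in CAMHB, CAMHB+3% lysed horse blood or HTM. Inoculum was set to OD600 ~0.1, then diluted 1:280 (Gram-positive) or 1:400 (Gram-negative), and plates were incubated 18-24 h at 35±2° C in ambient air. MIC (μg/mL) is the lowest concentration giving no visible growth.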

HepG2 cells = assay: Cytotoxicity assay (HepG2, CellTiter-Blue); type: cell-based
Method in brief: (§2)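 HepG2 cells exposed to compounds for 3 days. Viability read on day 3 by CellTiter-Blue fluorescence after 3 h at 37° C. CC50 obtained from a four-parameter logistic fit.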

[2] = system: K. pneumoniae (ATCC10031); assay: 50% growth inhibitory concentration (IC50) determination assay, K. pneumoniae; type: cell-based; settings: Iso-Sensitest broth, growth by OD 600 nm over 16 h, <0.098 = detection limit
Method in brief: as §1

[3] = Single dose PK study (SDPK) in female CD-1 mouse; type: in vivo; settings: IV bolus, 1.0 mg/kg solution; for clearance: plasma, read-out: CL total
Method: The single dose PK in female CD-1 mouse was performed to assess compound's pharmacokinetic properties. One group of animals were dosed via bolus intravenous (IV) of the respective compound. Blood samples (approximately 30 μL) were collected via saphenous vein at 5 mins, 15 min, 30 min, 1 hr, 2 hr, 4 hr and 7 hr. For last time point (24 hr), samples were collected via cardiac puncture while the mouse was under anesthesia. Blood samples were placed into tubes containing EDTA-K2 anticoagulant (2 μL of 0.5M per tube) and centrifuged at 3000 rpm for 10 minutes at 4° C. within half an hour to separate plasma from the samples. Following centrifugation, plasma samples were stored in polypropylene tubes, quick frozen over dry ice and kept at −70±10° C. until LC/MS/MS analysis. The pharmacokinetic parameters were calculated using non-compartmental module of WinNonlin® Professional 6.4.

[4] = Lyophilisation solubility assay (LYSA); type: physicochemical; settings: aqueous buffer, thermodynamic from solid; 0.05 M phosphate buffer, pH 6.5; <1.0 = detection limit
Method: The solubility of compounds of present invention was assessed by LYSA assay. Samples were prepared in duplicate from 10 mM DMSO stock solutions (20 μL) diluted in 30 μL pure DMSO. After evaporation of DMSO with a centrifugal vacuum evaporator, the residue was dissolved in 0.05 M phosphate buffer (150 μL, pH 6.5), which was stirred for one hour and shook for two hours. After one night, the solution was filtered using a microtiter filter plate. Then the filtrate and its 1/10 dilution were analyzed by HPLC-UV. In addition a four-point calibration curve was prepared from the 10 mM stock solutions and used for the solubility determination of the compounds.

[5] = Cytotoxicity assay (HepG2, CellTiter-Blue); type: cell-based; settings: human; HepG2 cells, 3 days treatment; >100 = detection limit
Method in brief: as §2

[6] = Staphylococcus aureus, ATCC29213
[7] = Acinetobacter baumannii, ATCC17978
[8] = Acinetobacter baumannii, ATCC19606, read-out: MIC S1, A. baumannii ATCC 19606
[9] = Acinetobacter baumannii, ATCC51432, read-out: MIC S2, A. baumannii ATCC 51432
[10] = Acinetobacter baumannii, ATCCBAA747, read-out: MIC S3, A. baumannii ATCC BAA-747
[11] = Escherichia coli, ATCC25922, read-out: MIC S11, E. coli ATCC 25922
[12] = Escherichia coli, ATCCBAA2340, read-out: MIC S10, E. coli ATCC BAA-2340
[13] = Klebsiella pneumoniae, ATCC10031, read-out: MIC S4, K. pneumoniae ATCC 10031
[14] = Klebsiella pneumoniae, ATCC700603, read-out: MIC S5, K. pneumoniae ATCC 700603
[15] = Klebsiella pneumoniae, ATCCBAA2146, read-out: MIC S6, K. pneumoniae ATCC BAA-2146
[16] = Pseudomonas aeruginosa, ATCC27853, read-out: MIC S7, P. aeruginosa ATCC 27853
[17] = Pseudomonas aeruginosa, ATCCBAA2113, read-out: MIC S8, P. aeruginosa ATCC BAA-2113
[18] = Klebsiella pneumoniae, ATCC10031

## 7-(5-cyano-4-(cis-(4R)-4 (dimethylamino)-3,3a,4,5,6,6a-hexahydro-1H-cyclopenta[c]pyrrol-2-yl)-6-fluoro-8-(methylamino)-9H-pyrido[2,3-b]indol-3-yl)-4-oxo-4H-quinolizine-3-carboxylic acid [Example 1.12]
S. aureus (ATCC29213)
  IC50: < 98 nM
A. baumannii (ATCC17978)
  IC50: < 98 nM
[1]
  MIC S9: 0.541
[1]; A. baumannii ATCC 19606
  MIC S1: 1.082
[1]; A. baumannii ATCC 51432
  MIC S2: 0.541
[1]; A. baumannii ATCC BAA-747
  MIC S3: 0.541
[1]; E. coli ATCC 25922
  MIC S11: 0.203
[1]; E. coli ATCC BAA-2340
  MIC S10: 0.541
[1]; K. pneumoniae ATCC 10031
  MIC S4: 0.068
[1]; K. pneumoniae ATCC 700603
  MIC S5: 2.168
[1]; K. pneumoniae ATCC BAA-2146
  MIC S6: 4.335
[1]; P. aeruginosa ATCC 27853
  MIC S7: 1.082
[1]; P. aeruginosa ATCC BAA-2113
  MIC S8: 2.168
HepG2 cells
  CC50: > 100000 nM
[2]
  IC50: < 98 nM

## CNc1cc(F)c(F)c2c1[nH]c1ncc(-c3ccc4ccc(C(=O)O)c(=O)n4c3)c(N3CCC4CN(C)C[C@@H]43)c12 (stereo in doubt) [Example 1.03, 7-[5,6-difluoro-4-(cis-5-methyl-2,3,3a,4,6,6a-hexahydropyrrolo[2,3-c]pyrrol-1-yl)-8-(methylamino)-9H-pyrido[2,3-b]indol-3-yl]-4-oxo-quinolizine-3-carboxylic acid]
S. aureus (ATCC29213); [6]
  IC50: < 98 nM
A. baumannii (ATCC17978); [7]
  IC50: < 98 nM
[3]
  AUC total: 374.7 ng·h/mL
  clearance: 39.1 mL/min/kg
[1]; [8]
  MIC: 0.26 µg/mL (≈ 0.477 µM)
[1]; [9]
  MIC: 0.26 µg/mL (≈ 0.477 µM)
[1]; [10]
  MIC: 0.13 µg/mL (≈ 0.239 µM)
[1]; E. coli ATCC 35218
  MIC S9: 0.510
[1]; [11]
  MIC: 0.193 µg/mL (≈ 0.354 µM)
[1]; [12]
  MIC: 2.06 µg/mL (≈ 3.78 µM)
[1]; [13]
  MIC: 0.03 µg/mL (≈ 0.0551 µM)
[1]; [14]
  MIC: 4.12 µg/mL (≈ 7.57 µM)
[1]; [15]
  MIC: 2.06 µg/mL (≈ 3.78 µM)
[1]; [16]
  MIC: 1.03 µg/mL (≈ 1.89 µM)
[1]; [17]
  MIC: 2.06 µg/mL (≈ 3.78 µM)
[4]
  solubility thermodynamic: 134 µg/mL (≈ 246 µM)
[5]
  CC50 at 3 days: 21900 nM
[2]; [18]
  IC50: < 98 nM

## CNc1cc(F)c(F)c2c1[nH]c1ncc(-c3ccc4ccc(C(=O)O)c(=O)n4c3)c(N3CC[C@H]4CN(C)C[C@H]43)c12 [Example 1.04, 7-[4-[(3aS,6aS)-5-methyl-2,3,3a,4,6,6a-hexahydropyrrolo[2,3-c]pyrrol-1-yl]-5,6-difluoro-8-(methylamino)-9H-pyrido[2,3-b]indol-3-yl]-4-oxo-quinolizine-3-carboxylic acid]
S. aureus (ATCC29213); [6]
  IC50: < 98 nM
A. baumannii (ATCC17978); [7]
  IC50: < 98 nM
[3]
  AUC total: 256 ng·h/mL
  clearance: 64.1 mL/min/kg
[1]; [8]
  MIC: 0.128 µg/mL (≈ 0.235 µM)
[1]; [9]
  MIC: 0.128 µg/mL (≈ 0.235 µM)
[1]; [10]
  MIC: 0.128 µg/mL (≈ 0.235 µM)
[1]; E. coli ATCC 35218
  MIC S9: 0.128
[1]; [11]
  MIC: 0.048 µg/mL (≈ 0.0881 µM)
[1]; [12]
  MIC: 0.258 µg/mL (≈ 0.474 µM)
[1]; [13]
  MIC: 0.032 µg/mL (≈ 0.0588 µM)
[1]; [14]
  MIC: 1.03 µg/mL (≈ 1.89 µM)
[1]; [15]
  MIC: 1.03 µg/mL (≈ 1.89 µM)
[1]; [16]
  MIC: 0.514 µg/mL (≈ 0.944 µM)
[1]; [17]
  MIC: 2.06 µg/mL (≈ 3.78 µM)
[4]
  solubility thermodynamic: 460 µg/mL (≈ 845 µM)
[5]
  CC50 at 3 days: 15000 nM
[2]; [18]
  IC50: < 98 nM

## CNc1cc(F)c(C#N)c2c1[nH]c1ncc(-c3ccc4ccc(C(=O)O)c(=O)n4c3)c(N3CC[C@H]4CN(C)C[C@H]43)c12 [Example 1.14, 7-[4-[(3aS,6aS)-5-methyl-2,3,3a,4,6,6a-hexahydropyrrolo[2,3-c]pyrrol-1-yl]-5-cyano-6-fluoro-8-(methylamino)-9H-pyrido[2,3-b]indol-3-yl]-4-oxo-quinolizine-3-carboxylic acid]
S. aureus (ATCC29213); [6]
  IC50: < 98 nM
A. baumannii (ATCC17978); [7]
  IC50: < 98 nM
[3]
  AUC total: 214 ng·h/mL
  clearance: 78.7 mL/min/kg
[1]; [8]
  MIC: 0.108 µg/mL (≈ 0.196 µM)
[1]; [9]
  MIC: 0.215 µg/mL (≈ 0.39 µM)
[1]; [10]
  MIC: 0.215 µg/mL (≈ 0.39 µM)
[1]; E. coli ATCC 35218
  MIC S9: 0.108
[1]; [11]
  MIC: 0.04 µg/mL (≈ 0.0725 µM)
[1]; [12]
  MIC: 0.215 µg/mL (≈ 0.39 µM)
[1]; [13]
  MIC: 0.027 µg/mL (≈ 0.049 µM)
[1]; [14]
  MIC: 1.72 µg/mL (≈ 3.13 µM)
[1]; [15]
  MIC: 0.86 µg/mL (≈ 1.56 µM)
[1]; [16]
  MIC: 0.86 µg/mL (≈ 1.56 µM)
[1]; [17]
  MIC: 1.72 µg/mL (≈ 3.13 µM)
[5]
  CC50 at 3 days: 15300 nM
[2]; [18]
  IC50: < 98 nM

## CNc1cc(F)cc2c1[nH]c1nc(Oc3cnc(C)nc3)nc(N3C[C@H]4C[C@@H]3C[C@H]4N)c12 [GP-6, reference compound]
S. aureus (ATCC29213); [6]
  IC50: < 98 nM
A. baumannii (ATCC17978); [7]
  IC50: < 98 nM
[3]
  AUC total: 126.2 ng·h/mL
  clearance: 132 mL/min/kg
[1]; [8]
  MIC: 0.339 µg/mL (≈ 0.78 µM)
[1]; [9]
  MIC: 0.339 µg/mL (≈ 0.78 µM)
[1]; [10]
  MIC: 0.169 µg/mL (≈ 0.389 µM)
[1]; E. coli ATCC 35218
  MIC S9: 0.169
[1]; [11]
  MIC: 0.127 µg/mL (≈ 0.292 µM)
[1]; [12]
  MIC: 1.36 µg/mL (≈ 3.13 µM)
[1]; [13]
  MIC: < 0.021 µg/mL
[1]; [14]
  MIC: 1.36 µg/mL (≈ 3.13 µM)
[1]; [15]
  MIC: 2.71 µg/mL (≈ 6.25 µM)
[1]; [16]
  MIC: 0.678 µg/mL (≈ 1.56 µM)
[1]; [17]
  MIC: 1.36 µg/mL (≈ 3.13 µM)
[4]
  solubility thermodynamic: < 1 µg/mL
[5]
  CC50 at 3 days: 5600 nM
[2]; [18]
  IC50: < 98 nM
